Laboratory results: paper PMC11697409, “Design of Natterins-based peptides improves antimicrobial and antiviral activities” (Biotechnology Reports, 2024)
Where two headings read alike, the source gives them in different places. Residues, ends and D or L forms follow the SMILES beside them. No end group written: not given here.

Experiments:
trypsin [1] = experiment: Peptide stability to trypsin, HPLC-MS; format: in vitro ADME; conditions: trypsin 20 μg/mL, peptide 100 μg/mL, incubation time not given; for Change after trypsin treatment, mass spectra: ESI-MS; for Change after trypsin treatment, HPLC chromatogram: HPLC C-18, UV 220 nm
Method: Peptide stability was evaluated under various conditions. To investigate the impact of temperature on peptide structure, samples were incubated at 37 °C and 60 °C for 24 h. A control sample was kept at -4 °C. To evaluate the distribution under acidic conditions, the peptides were dissolved in a 0.074 M HCl solution, resulting in a pH of 3. For evaluation under basic conditions, the peptides were dissolved in a 0.18 M NaOH solution, resulting in a pH of 11. A control sample was maintained at pH 7. Additionally, samples were exposed to trypsin solutions at a concentration of 20 µg/mL. All samples underwent analysis using High-Performance Liquid Chromatography (HPLC) coupled with Mass Spectrometry (LC/MS-2020 EV - Prominence; Shimadzu Corporation, Tokyo, Japan). The HPLC system comprised LC-10AD mobile phase pumps, an Ultrasphere C-18 column (5 µm; 4.6 × 250 mm), a UV-vis SPD-10AV detector set at a wavelength of 220 nm, and a mass spectrometer operating in electrospray ionization (ESI) mode with a quadrupole separator.
In mass spectrometry assays, an alkaline pH can lead to diverse outcomes. Specifically, in the analysis of proteins and peptides, an alkaline environment may induce unintended chemical modifications in certain samples, impacting ionization, fragmentation, and the detection of reference molecules. Additionally, the peptides underwent treatment with a trypsin solution at a concentration of 20 μg/mL.

G. mellonella larvae = experiment: Toxicity in Galleria mellonella; format: in vivo; conditions: 10 µL of 50 µM injected into the last left proleg, ten larvae per group, 7 days, three independent experiments
Method: For this study, the methodologies described by Mylonakis et al. and Jorjão et al., with some modifications were employed. G. mellonella larvae in their final larval stage were used for the experiment. Ten randomly selected G. mellonella larvae of similar weight and size (250 to 350 mg) were used per group in all assays. Syringes (Hamilton Inc., USA) used for injections were sterilized with peracetic acid (Henkel - Ecolab GmbH, Düsseldorf, Germany) according to the manufacturer's instructions prior to inoculation. Each larva was injected with 10 µL of each peptide (NATT2_06 and NATT4_01) at a concentration of 50 µM into the last left proleg. A control group was injected with PBS to assess overall viability. The number of deceased G. mellonella was recorded every 24 h after peptide injection, with monitoring continuing for 7 days across three independent experiments. […] The experiment concluded either when all larvae in the experimental group had died or transitioned into the pupal form.

human RBC = experiment: Hemolytic test; format: cell-based; conditions: 50 μM, 1 h at 37 °C, A570, 1 % TritonX-100 as positive control; highest percentage observed
Method: To perform the hemolytic test, human RBC was obtained from a volunteer donor. After centrifugation at 1000 xg for 5 min, the RBC pellets were resuspended in 5 % (vol/vol) sterile saline at different concentrations of peptides NATT2_06 and NATT4_01, and subsequently incubated at 37 °C for 1 hour. The supernatants were transferred to a 96-well plate, and the absorbance at 570 nm (A570) was measured. 0.12 % DMSO and 1 % TritonX-100 were used as negative and positive control, respectively. The hemolysis rate was calculated as Eq 1: Hemolysis%=A(sample)−A(DMSO)/A(Triton)−A(DMSO)x100

[2] = system: Chikungunya virus (CHIKV, ECSA genotype) in Huh-7 cells; format: cell-based; conditions: vs untreated CHIKV control
Method: . First, the viral propagation and titration were performed in the adherent African green monkey kidney epithelial (Vero) cells (ATCC CRL-1586). The virus was grown in Vero cultured in MEM medium (Gibco, Waltham, MA, USA) supplemented with 10 % fetal bovine serum (FBS, Gibco), 100 U/mL penicillin, and 100 μg/mL streptomycin (Gibco, Waltham, MA, USA)-M10) for 48 h Then, the supernatant was collected, harvested, and titrated as previously described. The titer obtained for CHIKV was 9.3 × 10^6 PFU/ml.
The immortalized human hepatocytes derived from the hepatocarcinoma of an individual (Huh-7 lineage, CLS 300156) were cultured. The Huh-7 were grown in Minimum Essential Medium (Advanced MEM, Gibco®, USA), supplemented with 10 % (v/v) heat-inactivated fetal bovine serum (FBS) (Gibco®, USA), 100 U/mL penicillin, and 100 μg/mL streptomycin (PenStrep – Gibco®, USA), along with 2 mM L-glutamine (Gibco®, USA), and maintained in a humidified atmosphere with 5 % CO2 at 37 °C. […]
The second assay, named "co-treatment" (Figure S1b), involved removing the culture medium from the wells, washing with PBS, followed by simultaneous inoculation of CHIKV and peptides, diluted in the same manner in culture medium with the same supplementation, in triplicate. […] Cells were also monitored for 12 h. […]
After conducting the assays, each viral RNA in the samples' supernatant was extracted using the QIAamp® Viral RNA Mini Kit (QIAGEN®, Germany). […] For the molecular characterization of NATT peptide treatment, RNA samples extracted from the plaque challenge assays' supernatants and viral stock dilutions underwent quantitative reverse transcription PCR (RT-qPCR) assays. […]
For the RT-qPCR reaction, the AgPath-ID® One Step RT-qPCR kit (Applied Biosystems®, USA) was used for each extracted RNA in duplicate. […] All detection and quantification of viral RNA was done by real-time PCR of each sample (Table S1 and Figure S14). […]

[3] = various assays; cited from earlier work
Source text: Similarly, peptides including HKPLP, Cap18, Cap11, Cap11–1-18m², Cecropin B, Cecropin P1, Melittin, Indolic ...

trypsin [4] = conditions: cited from earlier work
Method: In the case of the peptide Cap11, this loss of activity occurs after 15 min of incubation. Conversely, a brief exposure of up to 5 min to trypsin enhances the antimicrobial activity of peptides such as Cap11–1-18m² by a factor of 2 [76]. […] The sp ...

| Molecule | temperature withstood [3] | time of incubation with trypsin until antimicrobial activity is entirely lost (trypsin [4]) [s] | other results |
| --- | --- | --- | --- |
| CC(C)C[C@H](NC(=O)[C@H](CCCCN)NC(=O)[C@@H]1CCCN1C(=O)[C@H](CCCNC(=N)N)NC(=O)[C@H](CC(C)C)NC(=O)[C@@H](NC(=O)[C@@H](N)[C@@H](C)O)[C@@H](C)O)C(=O)N[C@@H](CCCCN)C(=O)N[C@@H](CO)C(=O)N[C@@H](CCCCN)C(N)=O [NATT2_06] (H-TTLRPKLKSK-NH2) |  |  | Change after trypsin treatment, mass spectra (trypsin [1]): displayed notable changes in mass; Change after trypsin treatment, HPLC chromatogram (trypsin [1]): displayed notable changes in mass; Deaths of G. mellonella larvae (G. mellonella larvae): only three deaths occurred; hemolysis (human RBC): 2% |
| CC(C)C[C@H](NC(=O)[C@H](CCCCN)NC(=O)CNC(=O)[C@H](CC(C)C)NC(=O)CNC(=O)[C@H](Cc1ccc(O)cc1)NC(=O)[C@H](CCCCN)NC(=O)[C@H](CC(N)=O)NC(=O)[C@H](CCCCN)NC(=O)[C@H](C)NC(=O)[C@@H](NC(=O)[C@H](Cc1ccc(O)cc1)NC(=O)[C@@H](N)CC(C)C)C(C)C)C(N)=O [NATT4_01] (H-LYVAKNKYGLGKL-NH2) |  |  | Percentage of viral inhibition, co-treatment ([2]; 25 μM): 25,31%; Percentage of viral inhibition, co-treatment ([2]; 50 μM): 22,62%; Percentage of viral inhibition, co-treatment ([2]; 3125 μM (so in the source)): 22,44%; Change after trypsin treatment, mass spectra (trypsin [1]): fragments of the peptide were discernible; Change after trypsin treatment, HPLC chromatogram (trypsin [1]): no notable shifts observed in the chromatograms; Deaths of G. mellonella larvae (G. mellonella larvae): no deaths were observed |
| Cap18 | up to 100 °C | ≤ 30 |  |
| Cecropin B | up to 100 °C | ≤ 30 |  |
| Cecropin P1 (SWLSKTAKKLENSAKKRISEGIAIAIQGGPR; Cecropin-P1; UniProt P14661 14-44, looked up) | up to 100 °C | ≤ 30 |  |
| Indolicidin (ILPWKWPWWPWRR; ends and bridges not checked; UniProt P33046 131-143, looked up) | up to 100 °C | ≤ 30 |  |
| Melittin | up to 100 °C | ≤ 30 |  |
